From patent US20240025912A1 (Merck Sharp & Dohme LLC, priority 2022, published 2024)

Molecular target: GST-RIPK1 (recombinant GST-RIPK1 kinase domain (residues 1-327)) (Homo sapiens (Human), UniProt Q13546)
Experiment: RIPK1-ADP-Glo Enzymatic Assay
Format: biochemical
Settings: 25 nM GST-RIPK1, 300 μM ATP, 3 μM dephosphorylated-MBP, 30 min pre-incubation, 150 min reaction
Summary of the method: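 GST-RIPK1 kinase domain (1-327, Sf21-expressed), 25 nM final, pre-incubated 30 min with compound (1% DMSO), then reacted 150 min with 300 μM ATP and 3 μM dephosphorylated MBP in HEPES pH 7.3/MgCl2 buffer. ADP measured by ADP-Glo luminescence; EC50 from 10-point 1:3 titrations (top 100000 nM), four-parameter fit.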

Sequence of GST-RIPK1 (recombinant GST-RIPK1 kinase domain (residues 1-327)) (Q13546 1-327): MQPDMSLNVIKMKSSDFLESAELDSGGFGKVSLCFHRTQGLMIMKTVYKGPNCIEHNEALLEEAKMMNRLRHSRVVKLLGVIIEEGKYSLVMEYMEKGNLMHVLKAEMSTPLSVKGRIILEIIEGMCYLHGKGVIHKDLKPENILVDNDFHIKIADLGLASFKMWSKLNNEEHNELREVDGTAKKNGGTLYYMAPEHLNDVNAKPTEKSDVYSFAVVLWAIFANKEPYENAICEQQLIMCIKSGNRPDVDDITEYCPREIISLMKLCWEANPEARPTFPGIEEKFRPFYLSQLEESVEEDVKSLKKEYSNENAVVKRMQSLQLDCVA

Structure (SMILES) | EC50
N#Cc1ccc([C@@H]2CCc3nn(C45CC(F)(C4)C5)c(=O)n32)cc1 [Compound 1-67, (S)-4-(2-(3-fluorobicyclo[1.1.1]pentan-1-yl)-3-oxo-2,5,6,7-tetrahydro-3H-pyrrolo[2,1-c][1,2,4]triazol-5-yl)benzonitrile] | 0.279 µM
Cc1cncc([C@@H]2CCc3nn(C45CC(Cl)(C4)C5)c(=O)n32)n1 [Compound 1-68] | 0.0595 µM
C[C@@H]1C[C@@H](c2cc(F)cc(F)c2)n2c1nn(C13CC(C#N)(C1)C3)c2=O [Compound 1-69, 3-((5S,7R)-5-(3,5-difluorophenyl)-7-methyl-3-oxo-6,7-dihydro-3H-pyrrolo[2,1-c][1,2,4]triazol-2(5H)-yl)bicyclo[1.1.1]pentane-1-carbonitrile] | 0.263 µM
C[C@H]1C[C@@H](c2cc(F)cc(F)c2)n2c1nn(C13CC(C#N)(C1)C3)c2=O [Compound 1-70, 3-((5S,7S)-5-(3,5-difluorophenyl)-7-methyl-3-oxo-6,7-dihydro-3H-pyrrolo[2,1-c][1,2,4]triazol-2(5H)-yl)bicyclo[1.1.1]pentane-1-carbonitrile] | 0.0685 µM
O=c1n(C23CC(Cl)(C2)C3)nc2n1[C@H](c1ccc(F)cn1)CC2 [Compound 1-71, (S)-2-(3-chlorobicyclo[1.1.1]pentan-1-yl)-5-(5-fluoropyridin-2-yl)-2,5,6,7-tetrahydro-3H-pyrrolo[2,1-c][1,2,4]triazol-3-one] | 0.162 µM
Cc1c(F)cc([C@@H]2CCc3nn(C45CC(F)(C4)C5)c(=O)n32)cc1Cl [Compound 1-72, (S)-5-(3-chloro-5-fluoro-4-methylphenyl)-2-(3-fluorobicyclo[1.1.1]pentan-1-yl)-2,5,6,7-tetrahydro-3H-pyrrolo[2,1-c][1,2,4]triazol-3-one] | 0.0212 µM
O=c1n(C23CC(F)(C2)C3)nc2n1[C@H](c1cc(F)c(O)c(F)c1)CC2 [Compound 1-73, (S)-5-(3,5-difluoro-4-hydroxyphenyl)-2-(3-fluorobicyclo[1.1.1]pentan-1-yl)-2,5,6,7-tetrahydro-3H-pyrrolo[2,1-c][1,2,4]triazol-3-one] | 0.0282 µM
Cc1cc(F)c([C@@H]2CCc3nn(C45CC(F)(C4)C5)c(=O)n32)c(F)c1 [Compound 1-74, (S)-5-(2,6-difluoro-4-methylphenyl)-2-(3-fluorobicyclo[1.1.1]pentan-1-yl)-2,5,6,7-tetrahydro-3H-pyrrolo[2,1-c][1,2,4]triazol-3-one] | 0.0209 µM
O=c1n(C23CC(F)(C2)C3)nc2n1[C@H](c1ccc(Cl)c(F)c1)CC2 [Compound 1-75, (S)-5-(4-chloro-3-fluorophenyl)-2-(3-fluorobicyclo[1.1.1]pentan-1-yl)-2,5,6,7-tetrahydro-3H-pyrrolo[2,1-c][1,2,4]triazol-3-one] | 0.0171 µM
O=c1n(C23CC(F)(C2)C3)nc2n1[C@H](c1cc(F)c(F)c(F)c1)CC2 [Compound 1-76, (S)-2-(3-fluorobicyclo[1.1.1]pentan-1-yl)-5-(3,4,5-trifluorophenyl)-2,5,6,7-tetrahydro-3H-pyrrolo[2,1-c][1,2,4]triazol-3-one] | 0.0275 µM
O=c1n(C23CC(F)(C2)C3)nc2n1[C@H](c1cc(F)c(Cl)c(F)c1)CC2 [Compound 1-77, (S)-5-(4-chloro-3,5-difluorophenyl)-2-(3-fluorobicyclo[1.1.1]pentan-1-yl)-2,5,6,7-tetrahydro-3H-pyrrolo[2,1-c][1,2,4]triazol-3-one] | 0.0167 µM
O=c1n(C23CC(F)(C2)C3)nc2n1[C@H](c1ccccc1)COC2 [Compound 1-78, (R)-2-(3-fluorobicyclo[1.1.1]pentan-1-yl)-5-phenyl-2,5,6,8-tetrahydro-3H-[1,2,4]triazolo[3,4-c][1,4]oxazin-3-one] | 0.0939 µM
N#CC12CC(n3nc4n(c3=O)[C@H](c3cc(F)cc(F)c3)COC4)(C1)C2 [Compound 1-79, (R)-3-(5-(3,5-difluorophenyl)-3-oxo-5,6-dihydro-3H-[1,2,4]triazolo[3,4-c][1,4]oxazin-2(8H)-yl)bicyclo[1.1.1]pentane-1-carbonitrile] | 0.108 µM
O=c1n(C23CC(F)(C2)C3)nc2n1[C@H](c1ccccc1)CCC2 [Compound 1-80, (S)-2-(3-fluorobicyclo[1.1.1]pentan-1-yl)-5-phenyl-5,6,7,8-tetrahydro-[1,2,4]triazolo[4,3-a]pyridin-3(2H)-one] | 0.0733 µM
N#CC12CC(n3nc4n(c3=O)[C@H](c3cc(F)cc(F)c3)CC4)(C1)C2(F)F [Compound 3-1, 3-[(5S)-5-(3,5-difluorophenyl)-3-oxo-6,7-dihydro-3H-pyrrolo[2,1-c][1,2,4]triazol-2(5H)-yl]-2,2-difluorobicyclo[1.1.1]pentane-1-carbonitrile] | 0.02 µM
COC(=O)C12CC(n3nc4n(c3=O)[C@H](c3ccccc3)CC4)(C1)C2(F)F [Compound 3-2, methyl (S)-2,2-difluoro-3-(3-oxo-5-phenyl-6,7-dihydro-3H-pyrrolo[2,1-c][1,2,4]triazol-2(5H)-yl)bicyclo[1.1.1]pentane-1-carboxylate] | 0.143 µM

Structure (SMILES) | EC50
N#CC12CC(n3nc4n(c3=O)[C@H](c3ccccc3)CC4)(C1)C2(F)F [Compound 3-3, 2,2-difluoro-3-[(5S)-3-oxo-5-phenyl-6,7-dihydro-3H-pyrrolo[2,1-c][1,2,4]triazol-2(5H)-yl]bicyclo[1.1.1]pentane-1-carbonitrile] | 0.045 µM
Cc1ccc([C@@H]2CCc3nn(C45CC(C#N)(C4)C5)c(=O)n32)cc1 [Compound 4-7, (S)-3-(3-oxo-5-(p-tolyl)-6,7-dihydro-3H-pyrrolo[2,1-c][1,2,4]triazol-2(5H)-yl)bicyclo[1.1.1]pentane-1-carbonitrile] | 0.0495 µM
N#CC12CC(n3nc4n(c3=O)[C@H](c3cnccn3)CC4)(C1)C2 [Compound 4-8, (S)-3-(3-oxo-5-(pyrazin-2-yl)-6,7-dihydro-3H-pyrrolo[2,1-c][1,2,4]triazol-2(5H)-yl)bicyclo[1.1.1]pentane-1-carbonitrile] | 0.165 µM
Cc1cc(F)cc([C@@H]2CCc3nn(C45CC(F)(C4)C5)c(=O)n32)c1 [Compound 4-9, (S)-5-(3-fluoro-5-methylphenyl)-2-(3-fluorobicyclo[1.1.1]pentan-1-yl)-2,5,6,7-tetrahydro-3H-pyrrolo[2,1-c][1,2,4]triazol-3-one] | 0.017 µM
O=c1n(C23CC(F)(C2)C3)nc2n1[C@H](c1ccc(C(F)F)cc1)CC2 [Compound 4-10, (S)-5-(4-(difluoromethyl)phenyl)-2-(3-fluorobicyclo[1.1.1]pentan-1-yl)-2,5,6,7-tetrahydro-3H-pyrrolo[2,1-c][1,2,4]triazol-3-one] | 0.0629 µM
O=c1n(C23CC(F)(C2)C3)nc2n1[C@H](c1ccc(C3CC3)cc1)CC2 [Compound 4-11, (S)-5-(4-cyclopropylphenyl)-2-(3-fluorobicyclo[1.1.1]pentan-1-yl)-2,5,6,7-tetrahydro-3H-pyrrolo[2,1-c][1,2,4]triazol-3-one] | 0.108 µM
O=c1n(C23CC(F)(C2)C3)nc2n1[C@H](c1cnccn1)CC2 [Compound 4-12, (S)-2-(3-fluorobicyclo[1.1.1]pentan-1-yl)-5-(pyrazin-2-yl)-2,5,6,7-tetrahydro-3H-pyrrolo[2,1-c][1,2,4]triazol-3-one] | 0.084 µM
Cc1cncc([C@@H]2CCc3nn(C45CC(F)(C4)C5)c(=O)n32)n1 [Compound 4-13, (S)-2-(3-fluorobicyclo[1.1.1]pentan-1-yl)-5-(6-methylpyrazin-2-yl)-2,5,6,7-tetrahydro-3H-pyrrolo[2,1-c][1,2,4]triazol-3-one] | 0.0798 µM
Cc1cnc([C@@H]2CCc3nn(C45CC(F)(C4)C5)c(=O)n32)cn1 [Compound 4-14, (S)-2-(3-fluorobicyclo[1.1.1]pentan-1-yl)-5-(5-methylpyrazin-2-yl)-2,5,6,7-tetrahydro-3H-pyrrolo[2,1-c][1,2,4]triazol-3-one] | 0.198 µM
Cc1ccccc1[C@@H]1CCc2nn(C34CC(F)(C3)C4)c(=O)n21 [Compound 4-15, (S)-2-(3-fluorobicyclo[1.1.1]pentan-1-yl)-5-(o-tolyl)-2,5,6,7-tetrahydro-3H-pyrrolo[2,1-c][1,2,4]triazol-3-one] | 0.341 µM
O=c1n(C23CC(F)(C2)C3)nc2n1[C@H](c1cnc(C(F)(F)F)cn1)CC2 [Compound 4-16, (S)-2-(3-fluorobicyclo[1.1.1]pentan-1-yl)-5-(5-(trifluoromethyl)pyrazin-2-yl)-2,5,6,7-tetrahydro-3H-pyrrolo[2,1-c][1,2,4]triazol-3-one] | 0.496 µM
O=c1n(C23CC(F)(C2)C3)nc2n1[C@H](c1cnccn1)C[C@@H]2F [Compound 4-17, (5S,7S)-7-fluoro-2-(3-fluorobicyclo[1.1.1]pentan-1-yl)-5-(pyrazin-2-yl)-2,5,6,7-tetrahydro-3H-pyrrolo[2,1-c][1,2,4]triazol-3-one] | 0.0388 µM
O=c1n(C23CC(F)(C2)C3)nc2n1[C@H](c1cc(F)cc(F)c1)C[C@H]2O [Compound 5-1, (5S,7R)-5-(3,5-difluorophenyl)-2-(3-fluorobicyclo[1.1.1]pentan-1-yl)-7-hydroxy-2,5,6,7-tetrahydro-3H-pyrrolo[2,1-c][1,2,4]triazol-3-one] | 0.0783 µM
O=c1n(C23CC(F)(C2)C3)nc2n1[C@H](c1cc(F)cc(F)c1)C[C@@H]2O [Compound 5-2, (5S,7S)-5-(3,5-difluorophenyl)-2-(3-fluorobicyclo[1.1.1]pentan-1-yl)-7-hydroxy-2,5,6,7-tetrahydro-3H-pyrrolo[2,1-c][1,2,4]triazol-3-one] | 0.0257 µM
N#CC12CC(n3nc4n(c3=O)[C@H](c3ccc(C(F)F)cc3)CC4)(C1)C2 [Compound 7-1, (S)-3-(5-(4-(difluoromethyl)phenyl)-3-oxo-6,7-dihydro-3H-pyrrolo[2,1-c][1,2,4]triazol-2(5H)-yl)bicyclo[1.1.1]pentane-1-carbonitrile] | 0.0902 µM
